ED50 and Ki data for 22 compounds are collected here from ChEMBL document CHEMBL1129118, “New heteroaryl-spaced phosphono -amino acids are competitive NMDA antagonists with analgesic activity” (Bioorg Med Chem Lett, 1996).

By ED50 is commonly meant the midpoint of the dose-response relation. As a reminder, the Ki is a dissociation constant, usually derived from enzyme kinetics or from competition with a known ligand. Higher therefore signals weaker binding.

One assay deals with Mus musculus. The assay is described as follows: Tested for its analgesic activity in the mouse formalin test (20 umol/kg 1 % formaldehyde injected into a hind paw, licking of the paw scored 15-30 min after formalin injection). The class given is functional.
In the case of `CCOc1ccc2cc(CP(=O)(O)O)c(C[C@@H](N)C(=O)O)nc2c1`, the ED50 came out at 150 µmol/kg.

The next assay has as its system Mus musculus. The assay is described as follows: Analgesic activity was evaluated in the mouse formalin test (20 uM/Kg 1% formaldehyde injected into a hind paw, licking of the paw scored 15-30 min after formalin injection). The class given is functional.
`N[C@H](Cc1nc2ccc(Cl)cc2cc1CP(=O)(O)O)C(=O)O` showed an ED50 of 200 µmol/kg.

The next assay has as its target Glutamate NMDA receptor. The assay can be described thus: Binding affinity to the glutamate site of the NMDA receptor was measured by competitive inhibition of binding of [3H]-CGP- 39653 to rat or porcine cerebral cortex membranes. The class given is cell membranes, Membrane.
In the case of `O=C(O)[C@@H]1C[C@H](CP(=O)(O)O)CCN1` (relative stereo) [SELFOTEL], affinity was put at a Ki of 29 nM. Same read-out and setting: next, `NC(Cc1nc2cc(Cl)c(Cl)cc2nc1CP(=O)(O)O)C(=O)O` (stereo unspecified): 3.4 nM; `CCc1cc2cc(CP(=O)(O)O)c(C[C@@H](N)C(=O)O)nc2cc1CC`: 4 nM; `NC(Cc1cc2ccccc2cc1CP(=O)(O)O)C(=O)O` (stereo unspecified): 140 nM.

`N[C@H](Cc1nc2ccncc2cc1CP(=O)(O)O)C(=O)O` gave an inhibition constant (Ki) of 722 nM.

Compound `Cc1ccc2cc(CP(=O)(O)O)c(C[C@@H](N)C(=O)O)nc2c1` returned an inhibition constant Ki of 54 nM.

Take `N[C@H](Cc1nc2ccc(Cl)cc2cc1CP(=O)(O)O)C(=O)O`: the affinity, expressed as Ki, was 57 nM.

Regarding `CCOc1ccc2cc(CP(=O)(O)O)c(C[C@@H](N)C(=O)O)nc2c1`, the affinity, expressed as Ki, was 29 nM. For `N[C@H](Cc1nc2cccc(Cl)c2cc1CP(=O)(O)O)C(=O)O`, the Ki turned out to be 120 nM. `N[C@H](Cc1nc2ccc(F)cc2cc1CP(=O)(O)O)C(=O)O` showed a Ki of 140 nM.

`N[C@H](Cc1nc2cc(Cl)c(Cl)cc2n1CP(=O)(O)O)C(=O)O` came in with an inhibition constant Ki of 18.2 nM. Regarding `N[C@H](Cc1nc2cc(Cl)c(Cl)cc2cc1CP(=O)(O)O)C(=O)O`, the Ki worked out at 5 nM. On the same count and under the same terms, in the case of `COc1cc2cc(CP(=O)(O)O)c(C[C@@H](N)C(=O)O)nc2cc1OC` it was 950 nM. For `Cc1cc2cc(CP(=O)(O)O)c(C[C@@H](N)C(=O)O)nc2cc1C`, the Ki was 5 nM.

Compound `N[C@H](Cc1nc2ncccc2cc1CP(=O)(O)O)C(=O)O` gave a Ki of 74 nM. Take `NC(Cc1oc2ccccc2c1CP(=O)(O)O)C(=O)O` (stereo unspecified): the inhibitory constant (Ki) was found to be 2700 nM. Still for that read-out and setting: in the case of `N[C@H](Cc1nc2ccccc2cc1CP(=O)(O)O)C(=O)O` it was 123 nM. `N[C@H](Cc1nc2c(Cl)cc(Cl)cc2cc1CP(=O)(O)O)C(=O)O` returned a Ki of 29 nM. Same read-out and setting: in the case of `CCC/C(=C\C(N)C(=O)O)CP(=O)(O)O` (stereo unspecified) it was 13 nM. On to `N[C@H](Cc1nc2cc(Cl)ccc2cc1CP(=O)(O)O)C(=O)O`, for which the Ki was 20 nM. In the case of `Cc1cc2cc(CP(=O)(O)O)c(C[C@@H](N)C(=O)O)nc2cc1Cl`, the affinity, expressed as Ki, was 4 nM. On the same count and under the same terms, in the case of `Cc1cc2cc(CP(=O)(O)O)c(C[C@H](N)C(=O)O)nc2cc1C` it was 430 nM.

In the next assay the test system is Mus musculus. The assay can be described thus: Analgesic activity was evaluated in the mouse formalin test (20 umol/kg 1 % formaldehyde injected into a hind paw, licking of the paw scored 15-30 min after formalin injection). The class given is functional.
`Cc1cc2cc(CP(=O)(O)O)c(C[C@@H](N)C(=O)O)nc2cc1C` displayed an ED50 of 42 µmol/kg. Still for that read-out and setting: in the case of `N[C@H](Cc1nc2cc(Cl)ccc2cc1CP(=O)(O)O)C(=O)O` it was 60 µmol/kg.
